Data from PubChem BioAssay (NCI).
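96-well plates; 48 h exposure; 5 concentrations. Endpoints by linear interpolation between flanking doses. Not reached: highest tested concentration assigned. The concentration for 50% growth inhibition is given as GI50. TGI denotes the concentration required for complete inhibition of growth.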

Experiments:
Assay in all cases: NCI anticancer screen, dose series, 48 h
A498 renal = system: A498 renal
A549 NSCLC = system: A549 NSCLC
ACHN renal = system: ACHN renal
BT-549 breast = system: BT-549 breast
CAKI-1 renal = system: CAKI-1 renal
COLO 205 colon = system: COLO 205 colon
DU-145 prostate = system: DU-145 prostate
EKVX NSCLC = system: EKVX NSCLC
HOP-62 NSCLC = system: HOP-62 NSCLC
HOP-92 NSCLC = system: HOP-92 NSCLC
HS 578T breast = system: HS 578T breast
IGROV1 ovarian = system: IGROV1 ovarian
K-562 leukemia = system: K-562 leukemia
KM12 colon = system: KM12 colon
M14 melanoma = system: M14 melanoma
MALME-3M melanoma = system: MALME-3M melanoma
MCF7 breast = system: MCF7 breast
MDA-MB-231 breast = system: MDA-MB-231 breast
MDA-MB-435 = system: MDA-MB-435
MDA-MB-468 breast = system: MDA-MB-468 breast
MOLT-4 leukemia = system: MOLT-4 leukemia
NCI-H226 lung = system: NCI-H226 lung
NCI-H23 lung = system: NCI-H23 lung
NCI-H460 lung = system: NCI-H460 lung
NCI-H522 lung = system: NCI-H522 lung
NCI/ADR-RES ovarian = system: NCI/ADR-RES ovarian
OVCAR-4 ovarian = system: OVCAR-4 ovarian
OVCAR-5 ovarian = system: OVCAR-5 ovarian
OVCAR-8 ovarian = system: OVCAR-8 ovarian
PC-3 prostate = system: PC-3 prostate
RXF 393 renal = system: RXF 393 renal
SF-268 CNS = system: SF-268 CNS
SF-295 CNS = system: SF-295 CNS
SF-539 CNS = system: SF-539 CNS
SK-MEL-2 melanoma = system: SK-MEL-2 melanoma
SK-MEL-28 melanoma = system: SK-MEL-28 melanoma
SK-MEL-5 melanoma = system: SK-MEL-5 melanoma
SK-OV-3 ovarian = system: SK-OV-3 ovarian
SN12C renal = system: SN12C renal
SNB-19 CNS = system: SNB-19 CNS
SNB-75 CNS = system: SNB-75 CNS
T-47D breast = system: T-47D breast
TK-10 renal = system: TK-10 renal
U251 CNS = system: U251 CNS
UACC-257 melanoma = system: UACC-257 melanoma
UACC-62 melanoma = system: UACC-62 melanoma
UO-31 renal = system: UO-31 renal

Cn1cc(-c2cc(N)n3nc(-c4c[nH]c5ccccc45)cc3n2)c2cccnc21
GI50 (A498 renal): 23 µM | TGI (A498 renal): 54.8 µM | GI50 (A549 NSCLC): 4.19 µM | TGI (A549 NSCLC): > 100 µM | GI50 (ACHN renal): 3.77 µM | TGI (ACHN renal): 21.1 µM | GI50 (BT-549 breast): 11.8 µM | TGI (BT-549 breast): 33.6 µM | GI50 (CAKI-1 renal): 3.85 µM | TGI (CAKI-1 renal): 44.8 µM | GI50 (COLO 205 colon): 10.7 µM | TGI (COLO 205 colon): 45.1 µM | GI50 (DU-145 prostate): 5.09 µM | TGI (DU-145 prostate): > 100 µM | GI50 (EKVX NSCLC): 15.3 µM | TGI (EKVX NSCLC): > 100 µM | GI50 (HOP-62 NSCLC): 6.15 µM | TGI (HOP-62 NSCLC): 59.7 µM | GI50 (HOP-92 NSCLC): 5.81 µM | TGI (HOP-92 NSCLC): 27.8 µM | GI50 (HS 578T breast): 20 µM | TGI (HS 578T breast): > 100 µM | GI50 (IGROV1 ovarian): 19.1 µM | TGI (IGROV1 ovarian): 55.9 µM | GI50 (K-562 leukemia): 2.79 µM | TGI (K-562 leukemia): > 100 µM | GI50 (KM12 colon): 3.34 µM | TGI (KM12 colon): 14.7 µM | GI50 (M14 melanoma): 2.63 µM | TGI (M14 melanoma): 6.79 µM | GI50 (MALME-3M melanoma): 3.25 µM | TGI (MALME-3M melanoma): 17.1 µM | GI50 (MCF7 breast): 3.3 µM | TGI (MCF7 breast): > 100 µM | GI50 (MDA-MB-231 breast): 3.4 µM | TGI (MDA-MB-231 breast): 28.8 µM | GI50 (MDA-MB-435): 11 µM | TGI (MDA-MB-435): 29.5 µM | GI50 (MDA-MB-468 breast): 2.22 µM | TGI (MDA-MB-468 breast): 6.42 µM | GI50 (MOLT-4 leukemia): 3.32 µM | TGI (MOLT-4 leukemia): > 100 µM | GI50 (NCI-H226 lung): 14.1 µM | TGI (NCI-H226 lung): > 100 µM | GI50 (NCI-H23 lung): 19 µM | TGI (NCI-H23 lung): 73.6 µM | GI50 (NCI-H460 lung): 3.56 µM | TGI (NCI-H460 lung): > 100 µM | GI50 (NCI-H522 lung): 5.54 µM | TGI (NCI-H522 lung): 35.9 µM | GI50 (NCI/ADR-RES ovarian): 4.66 µM | TGI (NCI/ADR-RES ovarian): > 100 µM | GI50 (OVCAR-4 ovarian): 3.42 µM | TGI (OVCAR-4 ovarian): > 100 µM | GI50 (OVCAR-5 ovarian): 11 µM | TGI (OVCAR-5 ovarian): 39.1 µM | GI50 (OVCAR-8 ovarian): 4.63 µM | TGI (OVCAR-8 ovarian): > 100 µM | GI50 (PC-3 prostate): 3.83 µM | TGI (PC-3 prostate): 23.6 µM | GI50 (RXF 393 renal): 2.28 µM | TGI (RXF 393 renal): 8.2 µM | GI50 (SF-268 CNS): 17.9 µM | TGI (SF-268 CNS): 81.9 µM | GI50 (SF-295 CNS): 1.99 µM | TGI (SF-295 CNS): 4.74 µM | GI50 (SF-539 CNS): 2.58 µM | TGI (SF-539 CNS): 7.31 µM | GI50 (SK-MEL-2 melanoma): 12.5 µM | TGI (SK-MEL-2 melanoma): 43.1 µM | GI50 (SK-MEL-28 melanoma): 5.33 µM | TGI (SK-MEL-28 melanoma): 20.2 µM | GI50 (SK-MEL-5 melanoma): 7.04 µM | TGI (SK-MEL-5 melanoma): 20.5 µM | GI50 (SK-OV-3 ovarian): 20.6 µM | TGI (SK-OV-3 ovarian): 69.5 µM | GI50 (SN12C renal): 11.6 µM | TGI (SN12C renal): 42.1 µM | GI50 (SNB-19 CNS): 14.8 µM | TGI (SNB-19 CNS): 31.4 µM | GI50 (SNB-75 CNS): 2.44 µM | TGI (SNB-75 CNS): 44.2 µM | GI50 (T-47D breast): 2.99 µM | TGI (T-47D breast): 13.1 µM | GI50 (TK-10 renal): 17.1 µM | TGI (TK-10 renal): 59.3 µM | GI50 (U251 CNS): 3.34 µM | TGI (U251 CNS): > 100 µM | GI50 (UACC-257 melanoma): 13.7 µM | TGI (UACC-257 melanoma): 33.5 µM | GI50 (UACC-62 melanoma): 5.71 µM | TGI (UACC-62 melanoma): 21.7 µM | GI50 (UO-31 renal): 5.41 µM | TGI (UO-31 renal): 26.6 µM
